Test results as given in PubChem BioAssay AID2060603 (Molecular Pharmacology Branch, DTP, NCI, 2025).

Tested on: 422866-222-R5-J1-PDC spheroid viability
Experiment: Anticancer human tumor 422866-222-R5-J1-PDC patient-derived pancreatic adenocarcinoma cell line growth inhibition [CLK]
Details: spheroids with HUVEC and MSC; for IC50: curve of first compound; for viability, T/C: stronger effect = lower value
From the text: A high-throughput screen of multi-cell type tumor spheroids was designed to identify active combinations of […] and targeted small molecules. Complex spheroids include a stromal component modeled by human endothelial cells (HUVEC) and fibroblasts modeled by human mesenchymal stem cells (MSCs). The concentration ranges selected for each drug and investigational agent were based upon clinically achievable concentrations if the clinical Cmax of the agent was known.
Compounds. The drugs and investigational agents: cirtuvivint (SM08502; NSC835563), CC-671 (NSC850746), vemurafenib (NSC761431), tapotoclax (NSC804041), sotorasib (NSC818433), adagrasib (NSC831453), MRTX-1133 (NSC836407), BAY2416964 (NSC825713), copanlisib (NSC816437), inavolisib (NSC800729), abemaciclib (NSC768073), osimertinib (NSC779217), entinostat (NSC756642), eltanexor (KPT-8602, NSC794443), venetoclax (NSC766270), ceralasertib (NSC777638), bortezomib (NSC756655), olaparib (NSC753686), talazoparib (NSC767125), alisertib (NSC759677), peposertib (NSC802822), gemcitabine (NSC613327), 5-fluorouracil (NSC19893), SN-38 (NSC673596), oxaliplatin (NSC266046), paclitaxel (NSC125973), and doxorubicin (NSC123127), were obtained from the National Cancer Institute (NCI) Developmental Therapeutics Program Chemical Repository. The FDA-approved anticancer drug set is available from the Developmental Therapeutics Program at https://dtp.cancer.gov/organization/dscb/obtaining/available plates.htm. […] The stock solutions were prepared in dimethyl sulfoxide (DMSO, Sigma-Aldrich, St. Louis, MO, cat. D2650), except for the platinum complexes which were prepared in saline (Quality Biological, Gaithersburg, MD, cat. 114-055-101), at 800-fold the tested concentration and stored at -70 degrees C prior to their use. All drugs and investigational agents were tested over a range starting from a high concentration at or near the clinical Cmax and decreasing in half-log increments. If the clinical Cmax for an agent had not been determined, the highest concentration tested was 10 microM.
Cell Culture. All cells were maintained in an incubator at 37 degrees C and 5% CO2 with 95% humidity. The PDC lines were cultured according to standard operating procedures established by the NCI PDMR. Briefly, all PDCs were thawed and cultured in Matrigel-coated flasks prepared with a working solution of 1X Ham's F-12 nutrient mix, without supplementation (Invitrogen, Waltham, MA, cat. 11765054), 100 U/mL penicillin-streptomycin (Invitrogen, cat. 15140122), and 2.5% Matrigel (Corning Inc., Corning, NY, cat. 354248) for the first three passages. The 947758-054-R-J2-PDC line was cultured in 6B/Colon 1A media, which includes advanced DMEM/F-12 (Thermo Fisher Scientific, cat. 12634028), 10 mM HEPES (Thermo Fisher Scientific, cat. 15630080), 1X GlutaMAX supplement (Thermo Fisher Scientific, cat. 35050061), 0.1 mg/mL primocin (InvivoGen, cat. ant-pm-2), 10% defined fetal bovine serum, heat inactivated (HyClone Laboratories Inc., cat. SH30070.03HI), 1.25 mM N-Acetyl-L-cysteine (Sigma-Aldrich, cat. A9165), 10 mM nicotinamide (Sigma-Aldrich, cat. N0636), 1X B-27 supplement (Thermo Fisher Scientific, cat. 17504044), 1X N-2 supplement (Thermo Fisher Scientific, cat. 17502048), and 10 microM Y-27632 dihydrochloride (Tocris Bioscience, cat. 1254). The 876862-298-R-J1-PDC was cultured in 6E media, which includes all 6B/Colon 1A media components plus 50% L-WRN conditioned media (ATCC, cat. CRL-3276), 50 ng/mL recombinant human EGF recombinant protein (hEGF; Thermo Fisher Scientific, cat. PHG0311), 10 ng/mL recombinant human fibroblast growth factor 10 (hGFG-10; PeproTech, cat. 100-26), 1 ng/mL recombinant human fibroblast growth factor 2 (hFGF-2; PeproTech, cat. 100-18B), and 1 µM prostaglandin E2 (PGE2; Tocris, cat. 2296). The 227483-062-R1-J1-PDC line was cultured in Panc media, containing all 6E components except hFGF-2, with the addition of 500 nM SB-431542 (Selleckchem, cat. S1067) and 10 nM gastrin (Tocris, cat. 3006). […]

[1] = second compound 0.0316 µM, first compound 0.0316 µM
[2] = second compound 0.0316 µM, first compound 0.1 µM
[3] = second compound 0.0316 µM, first compound 0.316 µM
[4] = second compound 0.0316 µM, first compound 1 µM
[5] = second compound 0.0316 µM, first compound 3.16 µM
[6] = second compound 0.0316 µM, first compound 10 µM
[7] = second compound 0.1 µM, first compound 0.0316 µM
[8] = second compound 0.1 µM, first compound 0.1 µM
[9] = second compound 0.1 µM, first compound 0.316 µM
[10] = second compound 0.1 µM, first compound 1 µM
[11] = second compound 0.1 µM, first compound 3.16 µM
[12] = second compound 0.1 µM, first compound 10 µM
[13] = second compound 0.316 µM, first compound 0.0316 µM
[14] = second compound 0.316 µM, first compound 0.1 µM
[15] = second compound 0.316 µM, first compound 0.316 µM
[16] = second compound 0.316 µM, first compound 1 µM
[17] = second compound 0.316 µM, first compound 3.16 µM
[18] = second compound 0.316 µM, first compound 10 µM
[19] = second compound 1 µM, first compound 0.0316 µM
[20] = second compound 1 µM, first compound 0.1 µM
[21] = second compound 1 µM, first compound 0.316 µM
[22] = second compound 1 µM, first compound 1 µM
[23] = second compound 1 µM, first compound 3.16 µM
[24] = second compound 1 µM, first compound 10 µM
[25] = second compound 3.16 µM, first compound 0.0316 µM
[26] = second compound 3.16 µM, first compound 0.1 µM
[27] = second compound 3.16 µM, first compound 0.316 µM
[28] = second compound 3.16 µM, first compound 1 µM
[29] = second compound 3.16 µM, first compound 3.16 µM
[30] = second compound 3.16 µM, first compound 10 µM
[31] = second compound 10 µM, first compound 0.0316 µM
[32] = second compound 10 µM, first compound 0.1 µM
[33] = second compound 10 µM, first compound 0.316 µM
[34] = second compound 10 µM, first compound 1 µM
[35] = second compound 10 µM, first compound 3.16 µM
[36] = second compound 10 µM, first compound 10 µM
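Further: spheroids exposed to agents for seven days before readout.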

CCCS(=O)(=O)Nc1ccc(F)c(C(=O)c2c[nH]c3ncc(-c4ccc(Cl)cc4)cc23)c1F + CNC(=O)c1ccc(Nc2nc(OC3CCCC3)c3c(-c4ccc5nc(C)oc5c4)c[nH]c3n2)c(OC)c1
IC50 (second compound 0.0316 µM): > 10 µM | IC50 (second compound 0.1 µM): > 10 µM | IC50 (second compound 0.316 µM): > 10 µM | IC50 (second compound 1 µM): > 10 µM | IC50 (second compound 3.16 µM): > 10 µM | IC50 (second compound 10 µM): > 10 µM | viability, T/C [1]: 93.6% | viability, T/C [2]: 111% | viability, T/C [3]: 141% | viability, T/C [4]: 155% | viability, T/C [5]: 190% | viability, T/C [6]: 134% | viability, T/C [7]: 99.8% | viability, T/C [8]: 102% | viability, T/C [9]: 114% | viability, T/C [10]: 152% | viability, T/C [11]: 224% | viability, T/C [12]: 122% | viability, T/C [13]: 81.5% | viability, T/C [14]: 77.2% | viability, T/C [15]: 79.3% | viability, T/C [16]: 105% | viability, T/C [17]: 101% | viability, T/C [18]: 104% | viability, T/C [19]: 69% | viability, T/C [20]: 75.9% | viability, T/C [21]: 81.1% | viability, T/C [22]: 91% | viability, T/C [23]: 114% | viability, T/C [24]: 92.3% | viability, T/C [25]: 58.4% | viability, T/C [26]: 70.1% | viability, T/C [27]: 67.1% | viability, T/C [28]: 84.6% | viability, T/C [29]: 128% | viability, T/C [30]: 84% | viability, T/C [31]: 57.8% | viability, T/C [32]: 69.2% | viability, T/C [33]: 74.8% | viability, T/C [34]: 75.9% | viability, T/C [35]: 117% | viability, T/C [36]: 80.7%

C=C(F)C(=O)N1CCN(c2nc(OCC3CCCN3C)nc3c2CCN(c2cccc4cccc(Cl)c24)C3)CC1CC#N (centres undefined) + CN1CCN(c2cc(C(=O)Nc3cc4cc(-c5cnn(C)c5)ccc4cn3)ccn2)CC1
IC50 (second compound 0.0316 µM): < 0.0316 µM | IC50 (second compound 0.1 µM): < 0.0316 µM | IC50 (second compound 0.316 µM): < 0.0316 µM | IC50 (second compound 1 µM): < 0.0316 µM | IC50 (second compound 3.16 µM): < 0.0316 µM | IC50 (second compound 10 µM): < 0.0316 µM | viability, T/C [1]: 40.6% | viability, T/C [2]: 29.3% | viability, T/C [3]: 27% | viability, T/C [4]: 26.2% | viability, T/C [5]: 15.9% | viability, T/C [6]: 2.17% | viability, T/C [7]: 45.5% | viability, T/C [8]: 33.9% | viability, T/C [9]: 29.3% | viability, T/C [10]: 25.1% | viability, T/C [11]: 19.9% | viability, T/C [12]: 1.79% | viability, T/C [13]: 42.4% | viability, T/C [14]: 30.6% | viability, T/C [15]: 27.9% | viability, T/C [16]: 20.1% | viability, T/C [17]: 20% | viability, T/C [18]: 0.13% | viability, T/C [19]: 19.9% | viability, T/C [20]: 18.5% | viability, T/C [21]: 18.6% | viability, T/C [22]: 16.4% | viability, T/C [23]: 10.2% | viability, T/C [24]: 0.1% | viability, T/C [25]: 4.24% | viability, T/C [26]: 4.94% | viability, T/C [27]: 4.57% | viability, T/C [28]: 3.86% | viability, T/C [29]: 4.64% | viability, T/C [30]: 0.71% | viability, T/C [31]: 3.87% | viability, T/C [32]: 0.7% | viability, T/C [33]: 0.93% | viability, T/C [34]: 0.72% | viability, T/C [35]: 0.46% | viability, T/C [36]: 0.15%
